What all share (assay type): binding
One assay deals with T1, eIF4E-2a (Amphidinium carterae, UniProt A0A109QBD6).
T1 construct: N-terminal GST tag (TEV site), E. coli, GST-fusion dimer, tag kept
T1 sequence (A0A109QBD6 1-255): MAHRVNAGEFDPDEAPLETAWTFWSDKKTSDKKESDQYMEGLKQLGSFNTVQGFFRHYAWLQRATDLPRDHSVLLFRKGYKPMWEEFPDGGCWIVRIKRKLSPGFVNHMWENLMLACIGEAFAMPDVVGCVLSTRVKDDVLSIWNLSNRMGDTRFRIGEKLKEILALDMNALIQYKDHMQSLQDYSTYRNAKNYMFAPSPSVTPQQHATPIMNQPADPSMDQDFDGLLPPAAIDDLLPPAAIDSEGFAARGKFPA
Kind of assay: SPR, Biacore T-200, steady state. An excerpt:
SPR, Biacore T-200, steady state on eIF4E-2a
(In SPR one partner is held on a chip, and binding of the other changes the refractive index at the surface.)

For the next assay, the target named is T2, eIF4E-1a (Amphidinium carterae, UniProt A0A0X9W7I2).
T2 construct: N-terminal GST tag (TEV site), pGEX-4T(MCS)-TEV, E. coli Rosetta(DE3)pLysS, DTT treated, GST-fusion dimer by gel filtration; tag kept
T2 sequence (A0A0X9W7I2 1-233): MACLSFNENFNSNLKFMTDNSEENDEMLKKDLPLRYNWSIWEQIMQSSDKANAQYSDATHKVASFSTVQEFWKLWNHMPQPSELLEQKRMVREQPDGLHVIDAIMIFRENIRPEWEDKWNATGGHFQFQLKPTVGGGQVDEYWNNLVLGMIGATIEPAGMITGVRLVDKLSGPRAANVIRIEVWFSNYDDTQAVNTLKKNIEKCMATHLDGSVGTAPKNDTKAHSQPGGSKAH
Kind of assay: SPR, Biacore T-200, steady state.

Assay [1] addresses T3, eIF4E-1d1 (Amphidinium carterae, UniProt A0A0X9VJN7).
T3 construct: gene eIF4E-1d; N-terminal GST tag (TEV site), E. coli, GST-fusion dimer, tag kept (SPR); S-tagged in vitro translated protein in bead assay
T3 sequence (A0A0X9VJN7 1-239): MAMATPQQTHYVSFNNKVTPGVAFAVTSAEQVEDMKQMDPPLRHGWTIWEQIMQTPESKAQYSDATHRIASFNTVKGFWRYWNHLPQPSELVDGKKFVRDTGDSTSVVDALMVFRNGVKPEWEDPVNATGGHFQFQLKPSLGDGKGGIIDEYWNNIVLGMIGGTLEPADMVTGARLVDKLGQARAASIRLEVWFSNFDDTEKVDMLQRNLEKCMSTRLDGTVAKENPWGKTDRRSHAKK
Kind of assay: SPR, Biacore T-200, steady state.

Assay [2] addresses T4, mouse eIF4E-1 (Mus musculus, UniProt P63073).
T4 construct: N-terminal GST tag, E. coli, GST-fusion dimer, tag kept
Kind of assay: SPR, Biacore T-200, steady state.

Assay [3] has as its target T3, eIF4E-1d1. Kind of assay: cap-Sepharose pull-down of […] in vitro translated protein. Conditions: ligand immobilised on Sepharose; S-tagged protein; 25 mM HEPES/KOH pH 7.2, 150 mM KCl, 200 μM GTP, 4 °C.
The target in another assay is T5, eIF4E-1c (Amphidinium carterae, UniProt A0A0X9VF44).
T5 construct: N-terminal S-tag, pCITE-4a, in vitro transcription/translation in rabbit reticulocyte lysate, 35S-Met labelled
T5 sequence (A0A0X9VF44 1-244): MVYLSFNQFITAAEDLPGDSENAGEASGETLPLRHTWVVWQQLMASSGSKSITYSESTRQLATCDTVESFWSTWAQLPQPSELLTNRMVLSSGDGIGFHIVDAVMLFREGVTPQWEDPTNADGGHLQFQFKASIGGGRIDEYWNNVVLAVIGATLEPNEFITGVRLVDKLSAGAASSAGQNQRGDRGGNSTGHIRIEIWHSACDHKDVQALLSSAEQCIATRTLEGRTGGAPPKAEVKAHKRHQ
Described as above. Conditions: ligand immobilised on Sepharose; S-tagged protein; 25 mM HEPES/KOH pH 7.2, 150 mM KCl, 200 μM GTP, 4 °C.

The target in assay [4] is T3, eIF4E-1d1. Put plainly: SPR, Biacore T-200, kinetic fit. From the text: SPR, Biacore T-200, kinetic fit on eIF4E-1d1
The target in assay [5] is T4, mouse eIF4E-1. Put plainly: SPR, Biacore T-200, kinetic fit. From the text: SPR, Biacore T-200, kinetic fit on mouse eIF4E-1

Data on four compounds can be found in publication doi:10.1101/2024.02.20.581179v1, “Regulated mRNA recruitment in dinoflagellates is reflected in hyper-variable mRNA spliced leaders and novel eIF4Es” (biorxiv, 2024).

SMILES strings stand for the structures.

As a reminder, the Kd is a measure of binding affinity in units of concentration. A lower Kd goes with tighter binding.

T4 sequence (P63073 2-217): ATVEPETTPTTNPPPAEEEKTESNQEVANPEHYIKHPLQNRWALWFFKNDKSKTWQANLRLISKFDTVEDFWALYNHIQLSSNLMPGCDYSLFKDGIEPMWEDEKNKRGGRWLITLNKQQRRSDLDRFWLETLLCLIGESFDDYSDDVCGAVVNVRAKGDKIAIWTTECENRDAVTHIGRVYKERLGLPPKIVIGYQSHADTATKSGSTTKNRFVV

As to `Nc1nc2c(ncn2[C@@H]2O[C@H](COP(=O)(O)OP(=O)(O)OP(=O)(O)OC[C@H]3O[C@@H](n4cnc5c(=O)[nH]c(N)nc54)[C@H](O)[C@@H]3O)[C@@H](O)[C@H]2O)c(=O)[nH]1` [GpppG], the Kd at eIF4E-2a is 665 ± 19 µM; on eIF4E-1a, 1730 ± 3700 µM; on eIF4E-1d1 [1] it was 1010 ± 110 µM; at mouse eIF4E-1 [2], 316 ± 38 µM.

For `CN(C)c1nc2c(c(=O)[nH]1)[n+](C)cn2[C@@H]1O[C@H](COP(=O)(O)OP(=O)(O)OP(=O)(O)O)[C@@H](O)[C@H]1O` [TMG], the “cap-Sepharose pull-down of 35S in vitro translated protein” value is “eIF4E-1c and eIF4E-1d1 showed some affinity for the TMG cap analogue” at eIF4E-1d1 [3]; “eIF4E-1c and eIF4E-1d1 showed some affinity for the TMG cap analogue” on eIF4E-1c.

For the compound `C[n+]1cn([C@@H]2O[C@H](COP(=O)(O)OP(=O)(O)OP(=O)(O)OC[C@H]3O[C@@H](n4ccc(N)nc4=O)[C@H](O)[C@@H]3O)[C@@H](O)[C@H]2O)c2nc(N)[nH]c(=O)c21` [m^7GpppC], the figures for the Kd at eIF4E-1d1 [4], on eIF4E-1a and on mouse eIF4E-1 [5] were 82.4 µM, 10.8 ± 3.1 µM and 69.8 µM, respectively.

With `C[n+]1cn([C@@H]2O[C@H](COP(=O)(O)OP(=O)(O)OP(=O)(O)OC[C@H]3O[C@@H](n4cnc5c(=O)[nH]c(N)nc54)[C@H](O)[C@@H]3O)[C@@H](O)[C@H]2O)c2nc(N)[nH]c(=O)c21` [m^7GpppG], the Kd at eIF4E-2a worked out at 469 ± 220 µM; on eIF4E-1a, 17.5 ± 4.68 µM; at eIF4E-1d1 [1], 34.5 ± 18.6 µM; at mouse eIF4E-1 [2] it was 59.7 ± 49.3 µM.
